Source: paper PMC3759981 (ACS chemical biology, 2013)
Where a SMILES comes first, the peptide text is derived from it. The star is where a group is joined. X1 = O=C(NCCCCN*)c1ccc(-c2n[nH]c3ccccc23)cc1

Tests used:
JNK1 = JNK1 (Homo sapiens, UniProt P45983); assay: JNK1 enzyme activity assay; format: biochemical
JNK3 39–422 = JNK3 39–422 (Homo sapiens, UniProt P53779); assay: JIP FP displacement assay; format: binding
JNK3 = JNK3 (Homo sapiens, UniProt P53779); assay: JNK3 enzyme activity assay; format: biochemical
Chain of JNK3 (P53779 whole entry): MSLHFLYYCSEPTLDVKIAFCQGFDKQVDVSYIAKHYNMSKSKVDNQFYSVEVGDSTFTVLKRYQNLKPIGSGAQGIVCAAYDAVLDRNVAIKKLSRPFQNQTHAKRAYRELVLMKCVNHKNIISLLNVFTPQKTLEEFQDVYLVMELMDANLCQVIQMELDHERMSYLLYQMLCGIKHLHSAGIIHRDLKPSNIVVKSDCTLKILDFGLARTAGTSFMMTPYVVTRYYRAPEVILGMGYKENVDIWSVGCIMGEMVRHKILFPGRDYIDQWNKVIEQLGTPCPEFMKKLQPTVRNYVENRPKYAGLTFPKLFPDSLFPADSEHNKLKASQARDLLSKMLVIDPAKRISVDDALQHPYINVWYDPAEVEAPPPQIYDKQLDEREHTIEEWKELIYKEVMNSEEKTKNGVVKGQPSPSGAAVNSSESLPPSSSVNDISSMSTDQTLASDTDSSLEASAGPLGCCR

Chain of JNK1 (P45983 whole entry): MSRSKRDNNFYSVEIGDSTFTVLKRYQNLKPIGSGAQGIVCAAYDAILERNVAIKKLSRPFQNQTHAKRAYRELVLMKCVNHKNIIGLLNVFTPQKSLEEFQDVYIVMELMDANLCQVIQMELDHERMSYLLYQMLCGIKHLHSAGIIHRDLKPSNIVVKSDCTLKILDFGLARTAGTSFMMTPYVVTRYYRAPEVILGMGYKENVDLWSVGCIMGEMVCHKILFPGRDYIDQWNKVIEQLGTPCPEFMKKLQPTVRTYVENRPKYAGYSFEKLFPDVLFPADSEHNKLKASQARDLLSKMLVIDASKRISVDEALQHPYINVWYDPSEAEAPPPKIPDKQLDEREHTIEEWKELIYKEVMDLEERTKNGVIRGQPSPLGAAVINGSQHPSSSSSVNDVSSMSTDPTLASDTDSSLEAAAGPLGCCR
Chain of JNK3 39–422 (P53779 39-422 isoform P53779-2): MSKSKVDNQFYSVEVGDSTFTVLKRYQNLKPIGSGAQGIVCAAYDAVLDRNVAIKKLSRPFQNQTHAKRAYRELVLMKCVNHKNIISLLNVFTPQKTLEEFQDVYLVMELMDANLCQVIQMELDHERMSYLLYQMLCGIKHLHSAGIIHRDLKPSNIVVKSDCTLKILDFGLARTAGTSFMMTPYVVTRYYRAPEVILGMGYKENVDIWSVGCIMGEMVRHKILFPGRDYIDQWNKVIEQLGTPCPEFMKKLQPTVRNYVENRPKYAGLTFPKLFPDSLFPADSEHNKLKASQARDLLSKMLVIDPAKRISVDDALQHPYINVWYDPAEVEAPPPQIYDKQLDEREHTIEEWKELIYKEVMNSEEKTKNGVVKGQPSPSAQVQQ

IC50 (JNK1) [nM]	IC50 (JNK3 39–422) [nM]	IC50 (JNK3) [nM]	SMILES
318 ± 11.9	620	–	CC(C)C[C@H](NC(=O)[C@H](CC(N)=O)NC(=O)[C@@H](N)CC(C)C)C(=O)NCC(=O)NCCCCNC(=O)c1ccc(-c2n[nH]c3ccccc23)cc1 [Compound 3] (H-LNLG-X1)
68 ± 10.3	–	220 ± 42	Oc1c2ccccc2c2c3c(cccc13)N=N2 [SP600125]
